In patent US6407041B1, “Substituted 2,4-diamino-1,3,5-triazines” (Bayer Aktiengesellschaft, priority 1997, dated 2002):

Assays:
weeds [1] = assay: Pre-emergence test, overall action; type: in vivo; conditions: result in words
Protocol: (§1) Solvent: 5 parts by weight of acetone
(§2) Emulsifier: 1 part by weight of alkylaryl polyglycol ether
(§3) To produce a suitable preparation of active compound, 1 part by weight of active compound is mixed with the stated amount of solvent, the stated amount of emulsifier is added and the concentrate is diluted with water to the desired concentration.
(§4) Seeds of the test plants are sown in normal soil. After about 24 hours, the soil is sprayed with the preparation of active compound such that the particular amounts of active compound desired are applied per unit area. The concentration of the spray liquor is chosen so that the particular amounts of active compound desired are applied in 1000 l of water/ha.
(§5) After three weeks, the degree of damage to the plants is rated in % damage in comparison with the development of the untreated control.
(§6) 0%=no effect (like untreated control)

weeds [2] = assay: Post-emergence test, overall action; type: in vivo; conditions: result in words
Protocol: as §1, §2
(§7) To produce a suitable preparation of active compound, I part by weight of active compound is mixed with the stated amount of solvent, the stated amount of emulsifier is added and the concentrate is diluted with water to the desired concentration.
as §4, with “Test plants having a height” for “Seeds”, “5-15 cm” for “the test plants”, “are” for “are sown in normal soil. After about 24 hours, the soil is”
as §5, §6

Sinapis [3] = assay: Pre-emergence test (greenhouse); type: in vivo; conditions: 1000 g of ai./ha, rated after three weeks vs untreated control, 0%=no effect, 100%=total destruction
Protocol: as §1, §2, §3, §4, §5, §6

Galium [4] = assay: Pre-emergence test (greenhouse); type: in vivo; conditions: 1000 g of ai./ha, rated after three weeks vs untreated control, 0%=no effect, 100%=total destruction
Protocol: as §1, §2, §3, §4, §5, §6

Setaria = assay: Pre-emergence test (greenhouse); type: in vivo; conditions: 1000 g of ai./ha, rated after three weeks vs untreated control, 0%=no effect, 100%=total destruction
Protocol: as §1, §2, §3, §4, §5, §6

Amaranthus [5] = assay: Pre-emergence test (greenhouse); type: in vivo; conditions: 1000 g of ai./ha, rated after three weeks vs untreated control, 0%=no effect, 100%=total destruction
Protocol: as §1, §2, §3, §4, §5, §6

Alopecurus [6] = assay: Pre-emergence test (greenhouse); type: in vivo; conditions: 1000 g of ai./ha, rated after three weeks vs untreated control, 0%=no effect, 100%=total destruction
Protocol: as §1, §2, §3, §4, §5, §6

Abutilon [7] = assay: Pre-emergence test (greenhouse); type: in vivo; conditions: 1000 g of ai./ha, rated after three weeks vs untreated control, 0%=no effect, 100%=total destruction
Protocol: as §1, §2, §3, §4, §5, §6

Maize = assay: Pre-emergence test (greenhouse), crop plant; type: in vivo; conditions: 1000 g of ai./ha, rated after three weeks vs untreated control, 0%=no effect, 100%=total destruction
Protocol: as §1, §2, §3, §4, §5, §6

Sinapis [8] = assay: Post-emergence test/greenhouse; type: in vivo; conditions: 1000 g of ai./ha, test plants 5-15 cm, rated after three weeks vs untreated control, 0%=no effect, 100%=total destruction
Protocol: as §1, §2, §7
as §4, with “Test plants having a height” for “Seeds”, “5-15 cm” for “the test plants”, “are” for “are sown in normal soil. After about 24 hours, the soil is”
as §5, §6

Galium [9] = assay: Post-emergence test/greenhouse; type: in vivo; conditions: 1000 g of ai./ha, test plants 5-15 cm, rated after three weeks vs untreated control, 0%=no effect, 100%=total destruction
Protocol: as §1, §2, §7
as §4, with “Test plants having a height” for “Seeds”, “5-15 cm” for “the test plants”, “are” for “are sown in normal soil. After about 24 hours, the soil is”
as §5, §6

Amaranthus [10] = assay: Post-emergence test/greenhouse; type: in vivo; conditions: 1000 g of ai./ha, test plants 5-15 cm, rated after three weeks vs untreated control, 0%=no effect, 100%=total destruction
Protocol: as §1, §2, §7
as §4, with “Test plants having a height” for “Seeds”, “5-15 cm” for “the test plants”, “are” for “are sown in normal soil. After about 24 hours, the soil is”
as §5, §6

Alopecurus [11] = assay: Post-emergence test/greenhouse; type: in vivo; conditions: 1000 g of ai./ha, test plants 5-15 cm, rated after three weeks vs untreated control, 0%=no effect, 100%=total destruction
Protocol: as §1, §2, §7
as §4, with “Test plants having a height” for “Seeds”, “5-15 cm” for “the test plants”, “are” for “are sown in normal soil. After about 24 hours, the soil is”
as §5, §6

Abutilon [12] = assay: Post-emergence test/greenhouse; type: in vivo; conditions: 1000 g of ai./ha, test plants 5-15 cm, rated after three weeks vs untreated control, 0%=no effect, 100%=total destruction
Protocol: as §1, §2, §7
as §4, with “Test plants having a height” for “Seeds”, “5-15 cm” for “the test plants”, “are” for “are sown in normal soil. After about 24 hours, the soil is”
as §5, §6

**Q.** With `CCc1nc(N)nc(NC(CC)COCc2ccc(F)cc2)n1` (racemic) [Example 1, 2-amino-4-ethyl-6-[1-(4-fluorobenzyloxymethyl)-propylamino]-1,3,5-triazine] as the molecule, how does the melting point read?
**A.** 96 °C

**Q.** With `CCC(COCc1ccccc1C)Nc1nc(NC(C)=O)nc(C(C)(C)F)n1` (racemic) [Example 2] as the molecule, how does the melting point read?
**A.** 108 °C

**Q.** Which action against weeds (weeds [1]) does the source give for `CCC(COCc1ccccc1)Nc1nc(N)nc(C(C)(C)F)n1` (centres unmarked) [Example 8] here?
**A.** very strong action against weeds

**Q.** And the melting point?
**A.** 114 °C

**Q.** What about the action against weeds (weeds [2]) of the same molecule?
**A.** very strong action against weeds

**Q.** Which results are given for `CCC(COCc1cccc(Cl)c1)Nc1nc(N)nc(C(C)(C)F)n1` (centres unmarked) [Example 14]?
**A.** action against weeds (weeds [1]): very strong action against weeds; melting point: 104 °C; action against weeds (weeds [2]): very strong action against weeds

**Q.** Which “degree of damage to the plants, Sinapis” value (Sinapis [3]) does the source give for `CCC(COCc1ccccc1)Nc1nc(N)nc(C(C)(C)F)n1` (centres unmarked) [drawing 495] here?
**A.** 100%

**Q.** What about the “degree of damage to the plants, Galium” value (Galium [4]) of the same molecule?
**A.** 100%

**Q.** And the “degree of damage to the plants, Setaria” value (Setaria)?
**A.** 100%

**Q.** What about the “degree of damage to the plants, Amaranthus” value (from here on “degree of damage … Amaranthus”) (Amaranthus [5]) of the same molecule?
**A.** 100%

**Q.** And the “degree of damage to the plants, Alopecurus” value (from here on “degree of damage … Alopecurus”) (Alopecurus [6])?
**A.** 100%

**Q.** And the “degree of damage to the plants, Abutilon” value (Abutilon [7])?
**A.** 100%

**Q.** With `CCC(COCc1cccc(Cl)c1)Nc1nc(N)nc(C(C)(C)F)n1` (centres unmarked) [drawing 496] as the molecule, how does the “degree of damage to the plants, Maize” value (Maize) read?
**A.** 10%

**Q.** What about the “degree of damage to the plants, Sinapis” value (Sinapis [3]) of the same molecule?
**A.** 90%

**Q.** And the “degree of damage … Amaranthus” value (Amaranthus [5])?
**A.** 100%

**Q.** What about the “degree of damage … Alopecurus” value (Alopecurus [6]) of the same molecule?
**A.** 95%

**Q.** What about the “degree of damage to the plants, Abutilon” value (Abutilon [7]) of the same molecule?
**A.** 95%

**Q.** With `CCC(COCc1ccccc1)Nc1nc(N)nc(C(C)(C)F)n1` (centres unmarked) [drawing 497] as the molecule, how does the “degree of damage to the plants, Sinapis” value (Sinapis [8]) read?
**A.** 100%

**Q.** What about the “degree of damage to the plants, Galium” value (Galium [9]) of the same molecule?
**A.** 90%

**Q.** And the “degree of damage … Amaranthus” value (Amaranthus [10])?
**A.** 100%

**Q.** What about the “degree of damage … Alopecurus” value (Alopecurus [11]) of the same molecule?
**A.** 95%

**Q.** And the “degree of damage to the plants, Abutilon” value (Abutilon [12])?
**A.** 100%

**Q.** With `CCC(COCc1cccc(Cl)c1)Nc1nc(N)nc(C(C)(C)F)n1` (centres unmarked) [drawing 498] as the molecule, how does the “degree of damage to the plants, Sinapis” value (Sinapis [8]) read?
**A.** 100%

**Q.** And the “degree of damage to the plants, Galium” value (Galium [9])?
**A.** 95%

**Q.** What about the “degree of damage … Amaranthus” value (Amaranthus [10]) of the same molecule?
**A.** 100%

**Q.** And the “degree of damage … Alopecurus” value (Alopecurus [11])?
**A.** 100%

**Q.** And the “degree of damage to the plants, Abutilon” value (Abutilon [12])?
**A.** 100%
